A melting point compilation (Tetko et al.)

First: Cc1cnc(Br)nc1Br
Second: Cc1cc(C(=O)O)c2cnn(C)c2n1
The melting point of the first is lower: 58 to 60 °C for the first, 284 to 286 °C for the second.

First: COc1ccc(S(=O)(=O)N2CCCCCC2)cc1C(=O)O
Second: Cc1ccc(N)cc1NC(=O)CN1CCCCC1
The melting point of the first is higher: 114 to 116 °C for the first, 108 to 110 °C for the second.

First: N#CCCC(=O)c1ccco1
Second: N#Cc1cccc(CS(=O)(=O)NN)c1
The melting point of the first is lower: 80 to 84 °C for the first, 139 to 141 °C for the second.

First: Cc1c(CC#N)cccc1[N+](=O)[O-]
Second: N#CCOc1ccc(Cl)cc1CBr
The melting point of the first is lower: 79 to 81 °C for the first, 85 to 87 °C for the second.

Compared with CS(=O)(=O)c1ccc(N)cc1F, CS(=O)(=O)c1ccccc1NN is lower in melting point: 116 to 118 °C for the first, 75 to 77 °C for the second.

Compared with CCOc1cc(C=CC(=O)O)ccc1OCCOc1ccccc1, CCOc1cc(C=O)ccc1OC(F)F is lower in melting point: 187 to 189 °C for the first, 30 to 32 °C for the second.

Compared with CC(C)C(N)c1nc(-c2nnc[nH]2)no1 (stereo not drawn), Cc1n[nH]c(C)c1C(C)CC(=O)O (stereo not drawn) is lower in melting point: 210 to 212 °C for the first, 195 to 197 °C for the second.

First: Cc1ccc(CCC(=O)O)o1
Second: O=C(O)CCc1nc2ccccc2oc1=O
The melting point of the first is lower: 58 to 60 °C for the first, 167 to 169 °C for the second.

First: Cc1cccc(NC(N)=S)c1
Second: COC(=O)C(=O)CC(=O)c1ccc(C)cc1
The melting point of the first is higher: 110 to 112 °C for the first, 86 to 88 °C for the second.

First: CC1Oc2ccc(C(=O)CBr)cc2NC1=O (stereo not drawn)
Second: Cn1c(=O)[nH]c2cc(C(=O)O)ccc21
The melting point of the first is lower: 147 to 149 °C for the first, 391 to 393 °C for the second.

First: Nc1cc(OCC(F)(F)F)cc(OCC(F)(F)F)c1
Second: Cc1ccc(S(=O)(=O)Nc2cccc(C(F)(F)F)c2)cc1N
The melting point of the first is lower: 50 to 52 °C for the first, 116 to 118 °C for the second.

Compared with O=C(O)C1CSc2ccccc21 (stereo not drawn), O=C(O)CNC(=O)c1ccccc1I is higher in melting point: 95 to 97 °C for the first, 174 to 176 °C for the second.

First: CCOc1cccc2c1OCC(C(=O)O)=C2
Second: CCOc1ccccc1C(=O)NC(C(=O)O)C(C)C (stereo not drawn)
The melting point of the first is higher: 219 to 221 °C for the first, 127 to 129 °C for the second.

Compared with Cn1c(-c2ccccc2)c(Br)c2ccccc21, COc1ccc2c(=O)c(-c3ccccc3)c(C)oc2c1 is higher in melting point: 59 to 61 °C for the first, 136 to 138 °C for the second.

First: O=C1CC(C(=O)O)CC(=O)N1
Second: O=C(O)Cc1ccc(N2CCCC2=O)cc1
The melting point of the first is higher: 204 to 206 °C for the first, 120 to 122 °C for the second.

Compared with N#Cc1cccc(N2CCCC2=O)c1, Cc1cc(C)n(Cc2cccc(C(=O)O)c2)n1 is higher in melting point: 81 to 83 °C for the first, 220 to 222 °C for the second.

Compared with Clc1ncc(Br)c2ccccc12, O=[N+]([O-])c1ccc(Oc2ccccc2Br)c(Cl)c1 is lower in melting point: 98 to 100 °C for the first, 86 to 88 °C for the second.

First: O=C(O)C=Cc1cnc2ccccc2n1
Second: O=C(O)CNC(=O)COc1ccccc1
The melting point of the first is higher: 233 to 235 °C for the first, 89 to 91 °C for the second.

First: Cn1ccc(C(=O)CCl)c1
Second: CCn1ccc(=O)nc1S
The melting point of the first is lower: 49 to 51 °C for the first, 242 to 244 °C for the second.

First: COc1cc(OC)cc(C(=O)Nc2ccc(O)c(C(=O)O)c2)c1
Second: NC(=O)Nc1cc(Cl)ccc1C(=O)O
The melting point of the first is higher: 241 to 243 °C for the first, 185 to 187 °C for the second.

First: Nc1nnc(-c2ccccn2)s1
Second: Nc1nnc(-c2cc(F)cc(Br)c2)s1
The melting point of the first is higher: 260 to 262 °C for the first, 192 to 194 °C for the second.

Compared with Nc1cc(N2CCOCC2)c(F)cc1[N+](=O)[O-], Clc1cncc(N2CCOCC2)n1 is lower in melting point: 185 to 187 °C for the first, 114 to 116 °C for the second.

Compared with CN(C)C(=O)Sc1cnc2nccn2c1, Cc1cc(C)cc(-n2ncc(C(=O)O)n2)c1 is higher in melting point: 129 to 131 °C for the first, 158 to 160 °C for the second.

First: O=C(c1cccs1)c1cccc2ccccc12
Second: O=C(NCc1ccccc1)c1cccc(O)c1
The melting point of the first is lower: 65 to 67 °C for the first, 140 to 142 °C for the second.

First: CC(C)NC(=S)N(C)C
Second: CC(C)C(=O)Nc1nc(CC(=O)O)cs1
The melting point of the first is lower: 73 to 75 °C for the first, 187 to 189 °C for the second.

First: Cc1ccc(-c2nnc3n2CCCCC3)cc1N
Second: Nc1nnc(CC2CCCC2)o1
The melting point of the first is lower: 171 to 173 °C for the first, 174 to 176 °C for the second.

Compared with Cc1ccc(C(F)(F)C(=O)O)cc1, Cc1ccc(S(=O)(=O)CC(C)O)cc1 (stereo not drawn) is higher in melting point: 39 to 41 °C for the first, 76 to 78 °C for the second.

Compared with NNC(=O)NC1CC1, NC(=O)NCC1CCCCC1 is higher in melting point: 64 to 66 °C for the first, 168 to 170 °C for the second.

Compared with COCCOc1ccc(Cl)cc1C#N, COc1cc(C(=O)O)ccc1OCc1ccc(Br)s1 is higher in melting point: 64 to 66 °C for the first, 179 to 181 °C for the second.

First: CCOC(=O)c1c(N)cc(OC)cc1OC
Second: COC(=O)Cn1cc(C(C)=O)nn1
The melting point of the first is lower: 61 to 63 °C for the first, 79 to 81 °C for the second.

First: Clc1nc(-c2ccccn2)nc2scc(-c3ccccc3)c12
Second: CN(c1ccc(F)cc1)S(=O)(=O)c1ccc(Cl)c(C(=O)O)c1
The melting point of the first is lower: 160 to 162 °C for the first, 174 to 176 °C for the second.

Compared with NC(=O)c1ccc(N)cn1, O=C(O)c1ccon1 is lower in melting point: 169 to 171 °C for the first, 143 to 145 °C for the second.

First: O=C(O)CNC(=O)c1c(F)cccc1Cl
Second: O=C(O)CNc1ccc(C(=O)O)cc1
The melting point of the first is lower: 197 to 199 °C for the first, 266 to 268 °C for the second.

First: CC(C)c1cnc(S)n1C
Second: Cc1nc2n(n1)CC(N)CC2 (stereo not drawn)
The melting point of the first is higher: 124 to 126 °C for the first, 60 to 62 °C for the second.

Compared with CC(=O)N1CCc2ccc(S(=O)(=O)Cl)cc21, N#Cc1cccnc1C1CC1 is lower in melting point: 144 to 146 °C for the first, 60 to 62 °C for the second.

First: CS/C(=N\C#N)N1CCOCC1
Second: CCC1C(=O)NCCN1C(N)=S (stereo not drawn)
The melting point of the first is lower: 126 to 128 °C for the first, 216 to 218 °C for the second.

Work on N#Cc1cc[nH]c1 yielded a melting point of 55 to 57 °C.
